Source: patent US9918966B2, “Anti-cancer compositions and methods” (The Penn State Research Foundation, priority 2013, dated 2018)
Read-outs that look alike come from different tables or passages of the source.

Columns and labels:
UACC 903 melanoma cells = experiment: Western blot analysis; format: cell-based, human; details: UACC 903, 2.5-50 μmol/L for 48 h
Excerpt: (§1) Cell lysates are harvested and processed as described in Sharma A et al., Cancer Res 2006, 66:8200-9. […] Protein lysates are collected for Western blotting. Blots are probed with total and phospho-Akt (Ser473), phospho-PRAS40 (Thr246), phospho-Erk1/2 (Thr202/Tyr204), total and Phospho-Mek1/2 (Ser217) and cleaved PARP from Cell Signaling Technology (Danvers, Mass.). Total PRAS40 from Invitrogen (Carlsbad, Calif.). Total Erk, cyclin D1, p27, Alpha-enolase and secondary antibodies conjugated with horseradish peroxidase from Santa Cruz Biotechnology (Santa Cruz Biotechnology, Santa Cruz, Calif.). COX-1 and COX-2 antibodies were obtained from Cayman Chemical Company, Ann Arbor, Mich. Immunoblots are developed using the enhanced chemiluminescence detection system (Amersham Pharmacia Biotech, Piscataway, N.J.).

1205 Lu melanoma cells = experiment: Western blot analysis; format: cell-based, human; details: 2.5-50 μmol/L for 48 h
Excerpt: as §1

[1] = test system: FF2441 human fibroblast cells; experiment: Cell viability, MTS assay; format: cell-based
Method: (§2) Cell viability, proliferation, apoptosis and cell cycle analysis: Viability and IC50 (μmol/L) of normal human melanocytes, fibroblast and melanoma cells following treatment with inhibitors are measured using the MTS assay (Promega, Madison, Wis.) described in Sharma A, et al., Clin Cancer Res 2009; 15:1674-85; and Madhunapantula S V, et al., Mol Cancer Ther 2008; 7:1297-308. […] IC50 values for each inhibitor in μmol/L for respective cell lines are measured from three independent experiments using GraphPad Prism version 4.01 (GraphPad Software, La Jolla, Calif.).
(§3) The number of viable cells is measured using MTS and percentage decrease in viability calculated. IC50 values for each inhibitor in μmol/L for respective cell lines are measured from three independent experiments using GraphPad Prism version 4.01 (GraphPad Software, La Jolla, Calif.).

[2] = test system: WM115 vertical growth phase melanoma cells; experiment: Cell viability, MTS assay; format: cell-based; details: Homo sapiens, WM-115
Method: as §2, §3

[3] = test system: FOM103 normal human melanocytes; experiment: Cell viability, MTS assay; format: cell-based; details: Melanocyte
Method: as §2, §3

[4] = test system: WM35 radial growth phase melanoma cells; experiment: Cell viability, MTS assay; format: cell-based; details: Homo sapiens
Method: as §2, §3

Caco-2 (Colon) = experiment: IC50 for killing cancer cells; format: cell-based; details: Homo sapiens
Excerpt: (§4) Therapeutic universality of selenocoxib-1-GSH for killing cancer cells is examined by treating pancreatic (MiaPaca-2), breast (MDA-MB-231), prostate (PC-3) or sarcoma (HT-1080) and colon (Caco2) cell. lines with the drug and establishing the IC50 for each cell line, Table III. Selenocoxib-1-GSH kills the various cancer cell lines at 2-3-fold lower concentrations than normal fibroblast cells.

HT-1080 (Fibro sarcoma) = experiment: IC50 for killing cancer cells; format: cell-based; details: Homo sapiens
Excerpt: as §4

MiaPaca-2 (Pancreas) = experiment: IC50 for killing cancer cells; format: cell-based; details: Homo sapiens, MIA PaCa-2
Excerpt: as §4

PC-3 (Prostate) = experiment: IC50 for killing cancer cells; format: cell-based; details: Homo sapiens
Excerpt: as §4

MDA-MB-231 (Breast) = experiment: IC50 for killing cancer cells; format: cell-based; details: Homo sapiens
Excerpt: as §4

[5] = test system: UACC 903 metastatic melanoma cells; experiment: cells; details: Homo sapiens
Method: as §2, §3

[6] = test system: 1205 Lu metastatic melanoma cells; experiment: cells; details: Homo sapiens
Method: as §2, §3

[7] = for Mortality at Day 7: 3 mice/group
Excerpt: Number of mice surviving and changes in body weight after 7 days of drug treatment is scored (Table I).

[8] = 0.032 μmoles (2.5 PPM) intraperitoneally daily for seven days

In the case of `N#CC(=C(/N)Sc1ccccc1N)/C(C#N)=C(\N)Sc1ccccc1N` [U0126, reference compound], the COX-1 expression (UACC 903 melanoma cells) is reported as “without affecting COX-1”, the COX-2 expression (UACC 903 melanoma cells) is reported as “reduces the expression of COX-2” and the “Levels of pErk1/2” value (UACC 903 melanoma cells) is reported as “similarly decrease”. The COX-1 expression (1205 Lu melanoma cells) was “without affecting COX-1”, the COX-2 expression (1205 Lu melanoma cells) was “reduces the expression of COX-2” and the “Levels of pErk1/2” value (1205 Lu melanoma cells) was “similarly decrease”.
`Cc1ccc(-c2cc(C(F)(F)F)nn2-c2ccc(S(N)(=O)=O)cc2)cc1` [Celecoxib, reference compound] showed an IC50 ([1]; FF2441, 24 h) greater than 100 µM, an IC50 ([1]; FF2441, 48 h) greater than 100 µM and an IC50 ([1]; FF2441, 72 h) of 65.3 ± 3.3 µM. The IC50 ([2]; WM115, 24 h) was 54.4 ± 3.6 µM, the IC50 ([2]; WM115, 48 h) was 45.3 ± 2.7 µM and the IC50 ([2]; WM115, 72 h) was 41.8 ± 2.9 µM. For the same compound, the IC50 ([3]; FOM103, 24 h) was greater than 100 µM, the IC50 ([3]; FOM103, 48 h) was greater than 100 µM and the IC50 ([3]; FOM103, 72 h) was 68 ± 1.2 µM. The IC50 ([4]; WM35, 24 h) was 51.3 ± 2.3 µM, the IC50 ([4]; WM35, 48 h) was 42.3 ± 1.8 µM and the IC50 ([4]; WM35, 72 h) was 37.9 ± 3.3 µM. It also gave an IC50 (Caco-2 (Colon)) greater than 100 µM, an IC50 (HT-1080 (Fibro sarcoma)) greater than 100 µM and an IC50 (MiaPaca-2 (Pancreas)) greater than 100 µM. It also gave an IC50 (PC-3 (Prostate)) greater than 100 µM, an IC50 (MDA-MB-231 (Breast)) greater than 100 µM and an IC50 ([5]; UACC-903, 24 h) greater than 100 µM. For the same compound, the IC50 ([5]; UACC-903, 48 h) was greater than 100 µM, the IC50 ([5]; UACC-903, 72 h) was 76.6 ± 4.4 µM and the IC50 ([6]; 24 h) was greater than 100 µM. For the same compound, the IC50 ([6]; 48 h) was 83.6 ± 3.3 µM and the IC50 ([6]; 72 h) was 66.1 ± 3.2 µM.
For Selenocoxib-1, the “% of weight loss” value [7, 8] was 14.07%, the “Mortality at Day 7” value [7, 8] was 0/3 and the “% of weight loss” value ([7]; 0.032 μmoles (2.5 PPM) intraperitoneally daily for seven days, listed as selenocoxib-1) was 14%. The “Mortality at Day 7” value ([7]; 0.064 μmoles (5.0 PPM) intraperitoneally daily for seven days) was 3/3 and the animal mortality ([7]; concentrations of 0.032-0.064, after seven days of treatment) was 100%.
